Experimental data as given in paper PMC4669708 (Cell Death & Disease, 2015).

Experiments:
HT-29 MLKL S358D cells = test: Cell death driven by doxycycline-induced MLKL S358D expression; format: cell-based, human; conditions: 2 μg/ml doxycycline overnight; 10 μM NSA, 0.5 μM ponatinib
Experimental: (§1) Cells were seeded in 12-, 24- or 96-well plates at proper cell density. For necroptosis or apoptosis assays, cells were incubated with the indicated compound combinations at concentrations stated for 14–24 h. Smac mimetic and z-VAD-FMK were added 30–60 min before treatment with TNF-α, FasL or TRAIL. Cell viability was determined using CellTiter Glo Luminescent Cell Viability Assay (Promega, Fitchburg, WI, USA) according to the manufacturer's instructions. Luminescence was recorded with a SpectraMax M5Multimode plate reader (Molecular Devices, Sunnyvale, CA, USA). For flow cytometry-based determination of viability, cells were harvested, collected by centrifugation, washed once and resuspended in staining buffer (1 × PBS, 10% FBS). Cells were incubated with 0.5 μg/ml PI for 10 min at room temperature (RT) in the dark. Flow cytometric analyses were performed on an LSR Fortessa (BD Biosciences) and analyzed with FlowJo software version 7.6.3 (Tree Star Inc, Ashland, OR, USA). Cell size was evaluated by forward scatter. PI-negative normal-sized cells were considered living and data were normalized to values of untreated controls. For detection of apoptosis, cells were resuspended in Annexin V Binding Buffer (BioLegend, San Diego, CA, USA) and stained with 0.5 μg/ml PI and Alexa Fluor 647 Annexin V (BioLegend) according to manufacturer's instructions.

HT-29 cells [1] = test: TRAIL- or FasL-induced necroptosis with Smac mimetic and z-VAD; format: cell-based, human; conditions: 0.5 μM ponatinib, 5 μM pazopanib
Experimental: as §1

recombinant RIPK1 = target: T1, recombinant RIPK1 (Homo sapiens, UniProt Q13546); test: Recombinant kinase assay; format: biochemical; conditions: 50 μM ATP; Supplementary Figure 4b
T1 construct: purchased Signalchem R07-10G
T1 sequence (Q13546 1-327 limits assumed): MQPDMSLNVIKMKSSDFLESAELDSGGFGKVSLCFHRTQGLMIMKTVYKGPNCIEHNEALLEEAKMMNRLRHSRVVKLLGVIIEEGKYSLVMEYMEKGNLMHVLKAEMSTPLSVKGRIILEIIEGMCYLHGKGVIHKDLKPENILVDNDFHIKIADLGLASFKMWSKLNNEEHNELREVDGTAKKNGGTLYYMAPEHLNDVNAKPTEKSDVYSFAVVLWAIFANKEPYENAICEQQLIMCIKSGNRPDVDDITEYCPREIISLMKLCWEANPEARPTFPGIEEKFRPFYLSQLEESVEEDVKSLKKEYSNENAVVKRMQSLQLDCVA
Experimental: (§2) Recombinant RIPK1 or RIPK3 protein was incubated with the substrate MBP in kinase assay buffer (40 mM Tris-HCl pH 7.5, 10 mM MgCl2 and 1 mM DTT) in presence of 50 μM ATP, 5 μCi [γ-32 P]ATP and the indicated inhibitors in a total volume of 20 μl. […] The terminated reactions were spotted onto a SAM2 Biotin Capture membrane (Promega) and further processed according to the manufacturer's instructions. […] Data were normalized to a DMSO-treated control sample. For autoradiography, the reactions were stopped by addition of 5 μl 4x Laemmli buffer and incubated for 5 min at 95 °C.

3T3-SA cells = test: TNF-α/z-VAD (TZ)-induced necroptosis; format: cell-based, murine; conditions: Supplementary Figures 3a, b
Experimental: as §1

[2] = system: FADD-deficient Jurkat cells; test: TNF-α-induced necroptosis, cell viability (CellTiter Glo); format: cell-based, human; conditions: for EC50: CellTiter Glo, read-out: EC50 for inhibiting necroptosis; for prevention of necroptotic cell death: dose range, Figure 2a, b
Experimental: as §1, with “controls.” for “controls. For detection of apoptosis, cells were resuspended in Annexin V Binding Buffer (BioLegend, San Diego, CA, USA) and stained with 0.5 μg/ml PI and Alexa Fluor 647 Annexin V (BioLegend) according to manufacturer's instructions.”
The compounds were transferred into drug plates by acoustic droplet ejection using an Echo 520 liquid handler (LABCYTE, Sunnyvale, CA, USA). Necroptosis was induced in FADD-deficient Jurkat cells by addition of 10 ng/ml TNF-α immediately before seeding onto drug plates at a density of 1x10^4 cells/well. After 16 h incubation, cell viability was determined using CellTiter Glo Luminescent Cell Viability Assay according to manufacturer's instructions. Data analysis was performed by calculating a percentage of control to normalize for variability across different plates. The signal for the negative control DMSO wells was set to 0%, whereas the wells containing the positive control Nec-1 were put to 100% for each plate individually.

Jurkat E6.1 cells = test: FasL-induced apoptosis, cell viability; format: cell-based; conditions: 100 ng/ml human FasL, 24 h; 0.5 μM ponatinib, 5 μM pazopanib
Experimental: as §1

HT-29 cells [3] = test: TNF-α/Smac mimetic/z-VAD-FMK (TSZ)-induced necroptosis, cell viability; format: cell-based, human; conditions: for rescue of TSZ-induced necroptotic cell death: compounds 1 μM, 20 ng/ml TNF-α, 500 nM Smac mimetic, 20 μM z-VAD overnight
Experimental: as §1, with “controls.” for “controls. For detection of apoptosis, cells were resuspended in Annexin V Binding Buffer (BioLegend, San Diego, CA, USA) and stained with 0.5 μg/ml PI and Alexa Fluor 647 Annexin V (BioLegend) according to manufacturer's instructions.”

RIPK3 = RIPK3 (Homo sapiens, UniProt Q9Y572); test: Recombinant kinase assay; format: biochemical; set-up: purchased Signalchem R09-10G
RIPK3, sequence (Q9Y572 whole entry): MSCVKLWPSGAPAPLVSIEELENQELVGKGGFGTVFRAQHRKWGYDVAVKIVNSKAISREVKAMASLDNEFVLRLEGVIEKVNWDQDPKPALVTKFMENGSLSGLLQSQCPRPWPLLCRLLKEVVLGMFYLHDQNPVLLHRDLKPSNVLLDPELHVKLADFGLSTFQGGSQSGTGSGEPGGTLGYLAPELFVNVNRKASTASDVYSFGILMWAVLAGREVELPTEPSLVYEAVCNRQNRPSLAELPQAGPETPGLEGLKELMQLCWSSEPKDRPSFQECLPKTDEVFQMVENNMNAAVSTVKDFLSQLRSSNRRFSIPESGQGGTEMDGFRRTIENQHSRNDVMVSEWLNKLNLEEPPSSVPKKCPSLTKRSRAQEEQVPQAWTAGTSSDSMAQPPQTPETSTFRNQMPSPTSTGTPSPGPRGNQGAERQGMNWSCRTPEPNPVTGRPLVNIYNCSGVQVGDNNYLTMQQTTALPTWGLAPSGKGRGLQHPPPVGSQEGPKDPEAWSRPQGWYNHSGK
Experimental: as §2

For “5-[[4-[(2,3-dimethyl-2H-indazol-6-yl)methylamino]-2-pyrimidinyl]amino]-2-methyl-b enzenesulfonamide [pazopanib]”, the “block of cell death driven by MLKL S358D expression” value (HT-29 MLKL S358D cells) was “did not block MLKL S358D-driven necroptosis”, the “block of TRAIL-induced cell death” value (HT-29 cells [1]; 200 ng/ml TRAIL + 500 nM Smac mimetic + 20 μM z-VAD) was “similarly blocked” and the “block of FasL-induced necroptotic cell death” value (HT-29 cells [1]; 200 ng/ml human FasL + 500 nM Smac mimetic + 20 μM z-VAD) was “similarly blocked”. The “RIPK1 kinase activity (MBP phosphorylation)” value (recombinant RIPK1) was “inhibiting RIPK1 kinase activity”, the “block of necroptotic cell death” value (3T3-SA cells) was “capable of blocking necroptotic cell death with comparable potency” and the EC50 ([2]; 10 ng/ml TNF-α overnight) was 254 nM. The “rescue of cell viability in drug screen” value ([2]; 0.5 and 1.5 μM, 10 ng/ml TNF-α overnight) was “robustly rescued cell viability at both concentrations”, the “inhibition of apoptotic cell death triggered by FasL” value (Jurkat E6.1 cells) was “none of the drugs inhibited apoptotic cell death” and the EC50 (HT-29 cells [3]; TSZ treatment, read-out: EC50 (necroptosis block)) was 873 nM. For the same compound, the “rescue of TSZ-induced necroptotic cell death” value (HT-29 cells [3]) was “rescued”.
For `COc1nccnc1NS(=O)(=O)c1ccc(NC(=O)/C=C/c2ccc([N+](=O)[O-])s2)cc1` [NSA, necrosulfonamide], the “block of cell death driven by MLKL S358D expression” value (HT-29 MLKL S358D cells) was “could be blocked”.
For `CN1C(=O)NC(Cc2c[nH]c3c(Cl)cccc23)C1=O` (stereo not shown) [Nec-1s, 7-Cl-O-Nec-1], the EC50 ([2]; 10 ng/ml TNF-α overnight) was 238 nM and the RIPK3 autophosphorylation (RIPK3; autoradiography, Supplementary Figure 4c) was “showed no effect”.
In the case of `COc1cc(O)c2c(c1)/C=C/C[C@H](O)[C@H](O)C(=O)/C=C\C[C@H](C)OC2=O` [TAK1 inhibitor], the protection to necroptosis ([2]; Supplementary Figures 6b, c) is reported as “not able to confer protection to necroptosis”.
In the case of `COc1cc(Nc2c(C#N)cnc3cc(OCCCN4CCN(C)CC4)c(OC)cc23)c(Cl)cc1Cl` [bosutinib], the “prevention of necroptotic cell death” value ([2]; 10 ng/ml TNF-α overnight) is reported as “none of the other drugs prevented necroptotic cell death” and the “rescue of TSZ-induced necroptotic cell death” value (HT-29 cells [3]) is reported as “neither of the other four BCR-ABL inhibitors nor vandetanib did”.
For `Cc1nc(Nc2ncc(C(=O)Nc3c(C)cccc3Cl)s2)cc(N2CCN(CCO)CC2)n1` [dasatinib], the “prevention of necroptotic cell death” value ([2]; 10 ng/ml TNF-α overnight) was “showed a modest effect but only at drug concentrations high enough to induce toxicity”, the “RIPK3 kinase activity (MBP phosphorylation)” value (RIPK3; 50 μM ATP, Figure 4e inhibitors at 10 μM) was “interfered with RIPK3 activity” and the “rescue of TSZ-induced necroptotic cell death” value (HT-29 cells [3]) was “neither of the other four BCR-ABL inhibitors nor vandetanib did”.
`Cc1ccc(NC(=O)c2ccc(CN3CCN(C)CC3)cc2)cc1Nc1nccc(-c2cccnc2)n1` [imatinib] was tested, and the “prevention of necroptotic cell death” value ([2]; 10 ng/ml TNF-α overnight) was “none of the other drugs prevented necroptotic cell death” and the “rescue of TSZ-induced necroptotic cell death” value (HT-29 cells [3]) was “neither of the other four BCR-ABL inhibitors nor vandetanib did”.
For `Cc1cn(-c2cc(NC(=O)c3ccc(C)c(Nc4nccc(-c5cccnc5)n4)c3)cc(C(F)(F)F)c2)cn1` [nilotinib], the “prevention of necroptotic cell death” value ([2]; 10 ng/ml TNF-α overnight) was “none of the other drugs prevented necroptotic cell death” and the “rescue of TSZ-induced necroptotic cell death” value (HT-29 cells [3]) was “neither of the other four BCR-ABL inhibitors nor vandetanib did”.
In the case of `COc1cc2c(Nc3ccc(Br)cc3F)ncnc2cc1OCC1CCN(C)CC1` [vandetanib], the “prevention of necroptotic cell death” value ([2]; 10 ng/ml TNF-α overnight) is reported as “did not confer protection” and the “rescue of TSZ-induced necroptotic cell death” value (HT-29 cells [3]) is reported as “neither of the other four BCR-ABL inhibitors nor vandetanib did”.
